Test results from patent publication US20220233492A1, “METHOD OF PREVENTING OR TREATING POSTOPERATIVE PAIN” (priority 2019, published 2022).
Entries after “also recorded” stand apart in the source; their conditions may differ.

Experiments:
[1] = tested on: postoperative pain, subjects underwent laparoscopic or robotic-assisted gastrectomy; experiment: Example 4: intraoperative start IV infusion vs placebo, laparoscopic or robotic-assisted gastrectomy; type: in vivo, human; details: for reduction of total amount of opioid consumed vs placebo: p<0.05
[2] = tested on: healthy human subjects or subjects undergoing major surgeries; experiment: safety in healthy human subjects or subjects undergoing major surgeries; type: in vivo
[3] = double-blinded, randomized preclinical studies with PK/PD correlation analyses; type: in vivo
[4] = tested on: postoperative pain, subjects for an elective bunionectomy; experiment: Example 3: IV infusion after nerve block removal vs placebo, elective bunionectomy; type: in vivo, human
Protocol: The primary-outcome measure, pain intensity, was evaluated using NRS (0-10) at the scheduled time points through 48 hours post-emergence. […] Subjects were given 2 stopwatches to start at the time of the start of the study drug infusion (T=0) and were instructed to stop the first stopwatch when “perceptible pain relief”, and the second stopwatch when “meaningful pain relief” is felt by the Time 12 hr.

[5] = tested on: postoperative pain, subjects underwent laparoscopic colorectal surgery; experiment: Example 1: postoperative IV infusion vs placebo after laparoscopic colorectal surgery; type: in vivo, human
Protocol: Subjects who reported a pain intensity score of at least 4 on the NRS (0-10) after regaining consciousness in the post-anesthesia care unit (PACU) were enrolled in the study. The VVZ-149 group received an 8-hours IV infusion at a loading dose of 1.8 mg/kg for 0.5 h followed by a maintenance dose of 1.3 mg/kg/h for 7.5 h, and the placebo group received a placebo with the same dosing regimen. […] The primary-outcome measure, pain intensity, was evaluated using NRS (0-10) at the scheduled time points through 24 hours post-emergence. […] In rescued patients, anxiety was also highly correlated with both depression (r=0.285, p=0.041) and PCS score (r=0.334, p=0.016).

[6] = tested on: postoperative pain, subjects for an open elective abdominoplasty; experiment: Example 2: IV infusion started before anesthesia induction vs placebo, open elective abdominoplasty; type: in vivo, human

For `CCCCOc1c(OC)cc(C(=O)NCC2(N(C)C)CCOCC2)cc1OC` [VVZ-149, 4-butoxy-N-((4-(dimethylamino)tetrahydro-2H-pyran-4-yl)methyl)-3,5-dimethoxybenzamide], the “mean NRS rest vs placebo” value ([1]; 10 h IV infusion 1.8 mg/kg 0.5 h + 1.3 mg/kg/hr 9.5 h, significance at T=4 (p<0.05), FIG. 12) was “lower at any given timepoint through 24 hrs post-emergence except at T=24”, the “opioid sparing (opioid consumed vs placebo)” value ([1]; for 10 hours post-emergence, p<0.01, FIG. 14) was 31.8% and the “number of PCA demand vs placebo” value ([1]; in vivo) was “significantly lessened at T=2 and T=10”. For the same compound, the “reduction of total amount of opioid consumed vs placebo” value ([1]; rescued patient group, 0-10 hr post-emergence) was 31.4%, the “reduction of total amount of opioid consumed vs placebo” value ([1]; rescued patient group, 10-24 hr post-emergence) was 35% and the “pain intensity (PIs) vs placebo” value ([1]; rescued patient group, significance at 4 hr (p<0.01) and 10 hr post-emergence (p<0.05), FIG. 15b) was “much lower”. For the same compound, the “clinically significant adverse events (AEs)” value [2] was “No clinically significant adverse events”, the pain relief [3] was “dose-dependent pain relief” and the “sedative or adverse effects” value [3] was “without significant sedative or adverse effects”. The anti-allodynic effect ([3]; versus morphine or gabapentin) was “comparable to morphine or gabapentin”, the “pain intensity (NRS 0-10) vs placebo” value ([4]; 10-hours IV infusion 160 mg 0.5 h + 840 mg 9.5 h after nerve block removal, FIG. 16a) was “lower pain intensity” and the “opioid consumption vs placebo” value ([4]; IV morphine rescue, all patients) was “less opioid consumption”. For the same compound, the “morphine requested and consumed vs placebo subgroup” value ([4]; subgroup predose PI≥7, FIG. 17a, 17b) was “significant less morphine was requested and consumed”, the “pain intensity vs placebo subgroup” value ([4]; subgroup with severe postoperative pain, predose PI≥7, FIG. 16b) was “significant lower pain intensity” and the “patients reporting perceptible pain relief” value ([4]; within 30 minutes after the start of infusion, FIG. 18) was “More than 50%”. For the same compound, the “pain intensity (NRS 0-10) vs placebo” value ([5]; 8-hours IV infusion 1.8 mg/kg 0.5 h + 1.3 mg/kg/h […], through 24 hours post-emergence, FIG. 1) was “lower pain intensity”, the “opioid consumption (hydromorphone via PCA and rescue) vs placebo” value ([5]; all patients, FIG. 2) was “significant less opioid consumption” and the “number of PCA demands vs placebo” value ([5]; hydromorphone PCA, FIG. 3 and FIG. 4) was “significantly reduced the patients' need for postoperative analgesia; also recorded: significantly lower”. For the same compound, the “pain intensity vs placebo subgroup” value ([5]; subgroup of rescued patients (rescue hydromorphone in first 2 hours post-emergence), FIG. 7) was “reduced pain intensity”, the “decrease in hydromorphone use compared to placebo” value ([5]; subgroup of rescued patients, FIG. 7) was 40% and the “pain intensity vs placebo subgroup” value ([5]; subgroup with severe postoperative pain (predose PI 7), FIG. 5a) was “significant lower pain intensity”. The “hydromorphone (via PCA and/or rescue) requested and consumed vs placebo subgroup” value ([5]; subgroup with severe postoperative pain (predose PI 7), FIG. 5b) was “less hydromorphone (via PCA and/or rescue) was requested and consumed”, the “total amount of rescue opioid consumed vs placebo” value ([6]; 0-6, 0-12, 0-24 hours, FIG. 9) was “significant lower” and the “reduction of postoperative pain” value ([6]; 10-hours IV infusion 160 mg 0.5 h + 840 mg 9.5 h, starting approx. 30 minutes before induction of anesthesia) was “opioid comparable reduction of postoperative pain”. The “number of requests for rescue opioid vs placebo” value ([6]; IV morphine rescue, 0-24 hours, FIG. 8) was “significant lower” and the “proportion of opioid-free subjects vs placebo” value ([6]; during the first 12 hours post-emergence, FIG. 10) was “higher proportion of subjects that are opioid-free”.
